Columns and labels:
Assay type in all cases: in vivo, human
[1] = system: subjects with HD; experiment: Phase 3 study: UHDRS functional assessment, independence scale, total functional capacity; settings: baseline to Week 12; either treatment group
Description: (§1) Exploratory endpoints included: • Wearable movement sensors (in select sites; optional participation) using MC10 Inc., BIOSTAMP® NPOINT® system • Huntington Disease Health Index • Changes from the screening period baseline to each postbaseline study visit (Weeks 2 through 12) in the TMC based on site assessments • Changes from the screening period baseline to maintenance (the average of the Week 10 and Week 12 assessments) in the TMC based on video recording central rater assessments • CGI-C response at Weeks 2 through 10 • PGI-C response at Weeks 2 through 10 • The change from baseline to Weeks 4, 8, and 10 in the Neuro-QoL Upper Extremity Function T-score. • The change from baseline to Weeks 4, 8, and 10 in the Neuro-QoL Lower Extremity Function T-score • CGI-S at Weeks 2 through 12 • PGI-S at Weeks 2 through 12 • SF-36 at Week 12 • HD-HI at Week 10 and Week 12 • EQ-5D-5L at Week 10 and Week 12 • UHDRS scores for motor, behavior, and functional capacity assessment at Weeks 2 through 12 • Other UHDRS scores including functional assessment and independence scale at Week 12 • AS at Week 12 • Change from screening period in physical activity by movement sensors at the Week 10 visit period
The functional capacity portion of the UHDRS consists of 5 items. […]

[2] = system: subjects with HD; experiment: Phase 3 study: Patient Global Impression of Severity (PGI-S)
Description: as §1
Subjects rated the severity of their chorea at scheduled visits on a 5-point scale. The PGI-S was analyzed using the same methods as the CGI-S.

[3] = system: subjects with HD; experiment: Phase 3 placebo-controlled study: UHDRS total maximal chorea (TMC) score; settings: for TMC score LS mean difference between treatment groups (valbenazine minus placebo): change from screening period baseline
Description: As used herein, “Unified Huntington Disease Rating Scale” or “UHDRS” is the standard clinical assessment tool in Huntington disease. The UHDRS is divided into four domains: motor performance, cognitive function, behavioral abnormalities, and functional abilities. The motor section consists of 31 items assessing oculomotor, bradykinesia/rigidity, dystonia, chorea, and gait/balance. The items are rated from zero to four, with zero indicating normal findings and four indicating severe abnormalities. The range of the Total Motor Score (TMS) is 0 to 124, with higher scores indicating more severe motor impairment. The cognitive component includes the verbal fluency test, the symbol digit modalities test, and the Stroop test (color naming, word reading, and interference). Lower scores indicate worse cognitive performance. The behavioral assessment measures the frequency and severity of 11 items, which are rated from zero (almost never/absent) to four (almost always/severe). The items assess depression, anxiety, aggression, psychosis, and other behavioral abnormalities. The behavioral score ranges from 0 to 88, with higher scores indicating more severe psychiatric abnormalities. The functional domain comprises three components, namely the total functional capacity (TFC), the functional assessment scale (FAS), and the independence scale (IS). The TFC consists of five items (occupation, finances, domestic chores, activities of daily living, and care level) and ranges from 0 to 13. The FAS includes 25 yes/no questions about common daily tasks (range 0-25). The Independence Score (IS) measures the level of independence by one single score between 10 and 100. For all functional scores, lower scores indicate a worse function. See, Huntington Study Group, Unified Huntington Disease Rating Scale: reliability and consistency. Mov Disord. 1996; 11:136-142, which is incorporated by reference in its entirety.
(§2) A Phase 3, randomized, double-blind, placebo-controlled study to evaluate the efficacy, safety, and tolerability of once-daily valbenazine in subjects with HD was conducted. The study included a 4-week screening period, an 8-week dose-adjustment period, a 4-week maintenance period, and a final study visit 2 weeks following the final dose of study drug.
Valbenazine was supplied as orally administered capsules containing 20 or 40 mg of valbenazine (free base equivalents as the ditosylate salt). Subjects must swallow the capsules with approximately 4 ounces of water or other liquid, with or without food.
During the dose-adjustment period, the investigator could increase a subject's dose to the next dose level if, in the investigator's opinion, the subject has tolerated the study drug at the current dose. Doses were adjusted in a blinded manner; subjects receiving placebo will undergo the dose-adjustment process but will continue to receive placebo. Dose increases were allowed at visits at the end of Weeks 2, 4, and 6. If the subject had not tolerated the current dose, the investigator could decrease the subject's dose at any time during the dose adjustment period (the 40 mg dose can be decreased to 20 mg). Doses were to be decreased 1 dose level at a time and subjects could have multiple dose decreases during the dose-adjustment period; subjects who were unable to tolerate the 20 mg dose could remain in the study but study drug dosing was discontinued.
During the maintenance period (beginning after the Week 8 visit through the end of Week 12), the subject's dose was maintained. If the subject could not tolerate the maintenance dose, the investigator could reduce the subject's dose a single time by 1 dose level (unless the subject is receiving 20 mg); if the subject could not tolerate the lower dose, he/she could remain in the study but study drug dosing was discontinued.
The primary endpoint for the study was change from baseline to maintenance in the Unified Huntington Disease Rating Scale total maximal chorea (TMC). […]

[4] = system: subjects with HD; experiment: Phase 3 study: safety and tolerability (adverse events)
Protocol: as §2
During the dose-adjustment and maintenance periods, the investigator could assess that a dose level is not tolerated if a subject experienced an adverse event (AE) that is (1) deemed associated with the study drug, and (2) of either moderate or severe intensity, or a serious AE.

SMILES: COc1cc2c(cc1OC)[C@H]1C[C@@H](OC(=O)[C@@H](N)C(C)C)[C@H](CC(C)C)CN1CC2 [Valbenazine, (S)-2-amino-3-methyl-butyric acid (2R,3R,11bR)-3-isobutyl-9,10-dimethoxy-1,3,4,6,7,11b-hexahydro-2H-pyrido[2,1-a]isoquinolin-2-yl ester]
- UHDRS functional assessment, independence, and total functional capacity scores, changes from baseline [1]: No clinically meaningful changes were noted from baseline to Week
- PGI-S: proportion of valbenazine-treated subjects who had no chorea symptoms ([2]; Week 12): chorea symptoms increased to about 27% from about 9% at baseline,
- PGI-S: proportion of valbenazine-treated subjects with moderate symptoms ([2]; Week 12): ~29%
- PGI-S: severe or very severe symptoms ([2]; Week 12): No valbenazine-treated subject had severe
- PGI-S: proportion of valbenazine-treated subjects with mild symptoms ([2]; Week 12 (remained consistent from baseline)): 45%), and the proportion with moderate symptoms decreased from
- onset of improvement of chorea symptoms (TMC by study visit) ([3]; FIG. 4, post-hoc analysis vs placebo): noted as early as week 2
- TMC score LS mean difference between treatment groups (valbenazine minus placebo) ([3]; Week 2, on-site assessments): minus placebo) were as follows: Week 2 (−1.26 [95% CI: −2.18, −0.34],
- TMC score LS mean difference between treatment groups (valbenazine minus placebo) ([3]; Week 4, on-site assessments): nominal p = 0.0077), Week 4 (−2.05 [95% CI: −3.12, −0.98],
- TMC score LS mean difference between treatment groups (valbenazine minus placebo) ([3]; Week 6, on-site assessments): nominal p = 0.0002), Week 6 (−1.69 [95% CI: −2.83, −0.55], nominal
- TMC score LS mean difference between treatment groups (valbenazine minus placebo) ([3]; Week 8, on-site assessments): p = 0.0041), Week 8 (−2.29 [95% CI: −3.46, −1.13], nominal
- TMC score LS mean difference between treatment groups (valbenazine minus placebo) ([3]; Week 10, on-site assessments): p = 0.0002); Week 10 (−3.10 [95% CI: −4.36, −1.84], nominal
- TMC score LS mean difference between treatment groups (valbenazine minus placebo) ([3]; Week 12, on-site assessments): p < 0.0001), and Week 12 (−3.22 [95% CI: −4.53, −1.91], nominal
- placebo-adjusted mean reduction in TMC score ([3]; baseline to maintenance, vs placebo): 3.2 units
- LS mean change from screening period baseline to maintenance in TMC scores ([3]; central video rater assessments, valbenazine group): in TMC scores as assessed by the central video raters was −3.51
- TMC score treatment difference, screening period baseline to maintenance ([3]; central video rater assessments, valbenazine vs placebo): of −2.59 (95% CI: −3.76, −1.41); p < 0.0001 (nominal), and was consistent
- TMC CFSPB @ Maintenance, LS Mean ([3]; change from screening period baseline to maintenance (average of Week 10 and Week 12), on-site assessments, once-daily valbenazine up to 80 mg, N=64): −4.6
- TMC CFSPB @ Maintenance, LS Mean, Difference ([3]; valbenazine vs placebo, on-site assessments): −3.16
- SAE and AE leading to discontinuation of study treatment ([4]; both treatment groups): comparable rates and low incidence
- rates of TEAEs ([4]; both treatment groups): comparable rates of TEAEs in both treatment groups
- tolerability ([4]; once-daily administration): well tolerated
- somnolence (most commonly reported AE), incidence ([4]; valbenazine group): 15.6%
- suicidal behavior or worsening of suicidal ideation ([4]; valbenazine treated subjects): No suicidal behavior or worsening of suicidal ideation was observed

Reference: patent US20260248771A1, “VALBENAZINE, A VMAT2 INHIBITOR, AS A FREE BASE A TOSYLATE OR DITOSYLATE SALT, FOR USE IN THE TREATMENT OF CHOREA ASSOCIATED WITH HUNTINGTON'S DISEASE” (Neurocrine Biosciences, Inc., priority 2022, published 2026)
